According to US20260201008A1, “SECRETIN-DERIVED GLP1R SELECTIVE AGONISTS” (GUBRA A/S, priority 2023, published 2026):
Numbered stars: 1 amine (or outer) side, 2 acyl side, 3 side chain; on linkers, the order of the positions; unused ones are H or OH. Square brackets hold non-standard residues; d marks the D form. Side chains are listed from the residue outwards. Peptide text beside a SMILES is read from it. * marks the point of attachment. C20 diacid = O=C(O)CCCCCCCCCCCCCCCCCCC(=O)*; γGlu = O=C(O)[C@H](CCC(=O)[*:2])N[*:1]; AEEA = NCCOCCOCC(=O)O; Aib = CC(C)(N)C(=O)O

Columns and labels:
GLP1R = GLP1R (Homo sapiens, UniProt P43220); assay: hGLP1R potency, cAMP accumulation in CHO-K1 cells stably overexpressing hGLP1R; type: cell-based; parameters: host or cells: CHO-K1; conditions: for Selectivity: SCTR EC50/GLP1R EC50 ratio; for EC50: cAMP accumulation, CHO-K1 cells overexpressing hGLP1R, read-out: pEC50 hGLPR1 (converted)
Sequence of GLP1R (P43220 24-463): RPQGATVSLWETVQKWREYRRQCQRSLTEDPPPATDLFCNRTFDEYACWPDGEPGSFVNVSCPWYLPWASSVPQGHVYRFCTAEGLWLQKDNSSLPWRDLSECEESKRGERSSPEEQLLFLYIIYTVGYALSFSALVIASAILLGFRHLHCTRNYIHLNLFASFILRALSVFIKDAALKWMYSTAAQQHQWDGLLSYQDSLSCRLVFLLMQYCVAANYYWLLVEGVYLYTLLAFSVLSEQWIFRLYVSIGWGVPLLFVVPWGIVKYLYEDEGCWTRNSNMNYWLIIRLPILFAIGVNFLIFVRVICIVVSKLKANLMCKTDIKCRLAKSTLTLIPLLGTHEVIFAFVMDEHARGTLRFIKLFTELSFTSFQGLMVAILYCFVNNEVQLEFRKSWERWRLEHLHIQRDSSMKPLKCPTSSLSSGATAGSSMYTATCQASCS
Procedure, shortened: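 2000 cells/well, DPBS + 0.05% casein + 0.5 mM IBMX; 30 min RT stimulation; HTRF cAMP detection after 1 h. Purified: 3-fold ×11, n=2; crude: 10-fold ×5, n=1. EC50 by variable-slope fit.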

SCTR = SCTR (Homo sapiens, UniProt P47872); assay: hSCTR potency, cAMP accumulation in CHO-K1 cells stably overexpressing hSCTR; type: cell-based; parameters: alternatively Euroscreen ES-712-AF; FAST-0161L; host or cells: CHO-K1; conditions: cAMP accumulation, CHO-K1 cells overexpressing hSCTR; read-out: pEC50 hSCTR (converted)
Sequence of SCTR (P47872 23-440): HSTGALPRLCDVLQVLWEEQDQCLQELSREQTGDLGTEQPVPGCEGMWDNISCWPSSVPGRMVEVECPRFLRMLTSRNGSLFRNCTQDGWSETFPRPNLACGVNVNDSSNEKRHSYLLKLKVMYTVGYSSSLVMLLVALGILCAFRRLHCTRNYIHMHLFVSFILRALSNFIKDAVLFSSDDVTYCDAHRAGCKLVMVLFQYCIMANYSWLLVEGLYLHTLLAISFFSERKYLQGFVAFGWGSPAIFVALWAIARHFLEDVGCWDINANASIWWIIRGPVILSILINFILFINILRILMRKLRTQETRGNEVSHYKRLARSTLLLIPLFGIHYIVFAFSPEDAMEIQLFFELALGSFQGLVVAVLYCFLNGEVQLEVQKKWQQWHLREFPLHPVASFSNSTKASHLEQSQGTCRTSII
Procedure, shortened: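 Thawed CHO-K1 cells carrying stable hSCTR are plated into casein/IBMX buffer (0.05%, 0.5 mM), dosed immediately for 30 min at room temperature, then cAMP is detected by TR-FRET. Purified peptides run as 11 three-fold dilutions in duplicate, and curves are fitted with variable slope.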

[1] = Fibril formation of crude library peptides (Thioflavin T); type: physicochemical; parameters: key: average ThT fluorescence emission at 480 nm (ex 450 nm), raw units; conditions: Physical stability of peptides
Procedure, shortened: (§1)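 Turbidity is the absorbance at 600 nm, taken before heating. Fibril signal is the mean ThT emission at 480 nm (450 nm excitation), read every 10 min over 72 h at 40° C with 700 rpm shaking between reads. Peptides at 267 μM, pH 4.0 acetate or pH 7.0 phosphate buffer (50 mM), 4 μM ThT final.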

[2] = Turbidity of crude library peptides (absorbance at 600 nm); type: physicochemical; conditions: Physical stability of peptides
Procedure, shortened: as §1

Row | Selectivity (GLP1R) | EC50 (GLP1R) [nM] | EC50 (SCTR) [nM] | Fibril formation [1] | Turbidity (pH 7) [2] | SMILES
1 | 11839 | 0.1 | 1260 | 13444 | 0.08 | CC(C)C[C@H](NC(=O)[C@H](Cc1ccccc1)NC(=O)[C@H](CCCNC(=N)N)NC(=O)[C@H](CCC(N)=O)NC(=O)C(C)(C)NC(=O)[C@H](C)NC(=O)[C@H](C)NC(=O)[C@H](Cc1ccccc1)NC(=O)[C@H](CCC(=O)O)NC(=O)[C@H](CCCCNC(=O)COCCOCCNC(=O)COCCOCCNC(=O)CC[C@H](NC(=O)CCCCCCCCCCCCCCCCCCC(=O)O)C(=O)O)NC(=O)[C@H](CC(C)C)NC(=O)[C@H](CCCNC(=N)N)NC(=O)[C@H](CO)NC(=O)[C@@H](NC(=O)[C@H](CC(=O)O)NC(=O)[C@H](CO)NC(=O)[C@@H](NC(=O)[C@H](Cc1ccccc1)NC(=O)[C@@H](NC(=O)CNC(=O)[C@H](CCC(=O)O)NC(=O)C(C)(C)NC(=O)[C@@H](N)Cc1c[nH]cn1)[C@@H](C)O)[C@@H](C)O)C(C)C)C(=O)N[C@@H](CCC(=O)O)C(=O)N[C@@H](Cc1c[nH]cn1)C(=O)N[C@@H](CC(C)C)C(=O)N[C@H](C(N)=O)C(C)C [compound 68] (H-H[Aib]EGTFTSDVSRLK([AEEA-AEEA-γGlu-C20 diacid])EFAA[Aib]QRFLEHLV-NH2)
2 | 1030149 | 0.0158 | 15800 | 14799 | 0.08 | CC(C)C[C@H](NC(=O)[C@H](Cc1ccccc1)NC(=O)[C@H](CCCNC(=N)N)NC(=O)[C@H](CCC(N)=O)NC(=O)[C@H](CCC(=O)O)NC(=O)[C@H](C)NC(=O)[C@H](C)NC(=O)[C@@H](NC(=O)[C@H](CCC(=O)O)NC(=O)[C@H](CCCCNC(=O)COCCOCCNC(=O)COCCOCCNC(=O)CC[C@H](NC(=O)CCCCCCCCCCCCCCCCCCC(=O)O)C(=O)O)NC(=O)[C@H](CC(C)C)NC(=O)[C@H](Cc1ccc(O)cc1)NC(=O)[C@H](CO)NC(=O)[C@@H](NC(=O)[C@H](CC(=O)O)NC(=O)[C@H](CO)NC(=O)[C@@H](NC(=O)[C@H](Cc1ccccc1)NC(=O)[C@@H](NC(=O)CNC(=O)[C@H](CCC(=O)O)NC(=O)C(C)(C)NC(=O)[C@@H](N)Cc1c[nH]cn1)[C@@H](C)O)[C@@H](C)O)C(C)C)[C@@H](C)O)C(=O)N[C@@H](CCC(=O)O)C(=O)N[C@@H](Cc1c[nH]cn1)C(=O)N[C@@H](CC(C)C)C(=O)N[C@H](C(N)=O)C(C)C [compound 69] (H-H[Aib]EGTFTSDVSYLK([AEEA-AEEA-γGlu-C20 diacid])ETAAEQRFLEHLV-NH2)
3 | 4095 | 0.02 | 100 | 99118 | 0.11 | CC(C)C[C@H](NC(=O)[C@H](Cc1ccccc1)NC(=O)[C@H](CCCNC(=N)N)NC(=O)[C@H](CCC(N)=O)NC(=O)[C@@H](NC(=O)[C@H](C)NC(=O)[C@H](C)NC(=O)[C@@H](NC(=O)[C@H](CCC(=O)O)NC(=O)[C@H](CCCCNC(=O)COCCOCCNC(=O)COCCOCCNC(=O)CC[C@H](NC(=O)CCCCCCCCCCCCCCCCCCC(=O)O)C(=O)O)NC(=O)[C@H](CC(C)C)NC(=O)[C@H](Cc1ccccc1)NC(=O)[C@H](CO)NC(=O)[C@@H](NC(=O)[C@H](CC(=O)O)NC(=O)[C@H](CO)NC(=O)[C@@H](NC(=O)[C@H](Cc1ccccc1)NC(=O)[C@@H](NC(=O)CNC(=O)[C@H](CCC(=O)O)NC(=O)C(C)(C)NC(=O)[C@@H](N)Cc1c[nH]cn1)[C@@H](C)O)[C@@H](C)O)C(C)C)[C@@H](C)O)[C@@H](C)O)C(=O)N[C@@H](CCC(=O)O)C(=O)N[C@@H](Cc1c[nH]cn1)C(=O)N[C@@H](CC(C)C)C(=O)N[C@H](C(N)=O)C(C)C [compound 70] (H-H[Aib]EGTFTSDVSFLK([AEEA-AEEA-γGlu-C20 diacid])ETAATQRFLEHLV-NH2)
4 | 13611 | 0.0631 | 1000 | 231646 | 0.08 | CC(C)C[C@H](NC(=O)[C@H](Cc1ccccc1)NC(=O)[C@H](CCCNC(=N)N)NC(=O)[C@H](CCC(N)=O)NC(=O)[C@H](CO)NC(=O)[C@H](C)NC(=O)[C@H](C)NC(=O)[C@@H](NC(=O)[C@H](CCC(=O)O)NC(=O)[C@H](CCCCNC(=O)COCCOCCNC(=O)COCCOCCNC(=O)CC[C@H](NC(=O)CCCCCCCCCCCCCCCCCCC(=O)O)C(=O)O)NC(=O)[C@H](CC(C)C)NC(=O)[C@H](CCCNC(=N)N)NC(=O)[C@H](CO)NC(=O)[C@@H](NC(=O)[C@H](CC(=O)O)NC(=O)[C@H](CO)NC(=O)[C@@H](NC(=O)[C@H](Cc1ccccc1)NC(=O)[C@@H](NC(=O)CNC(=O)[C@H](CCC(=O)O)NC(=O)C(C)(C)NC(=O)[C@@H](N)Cc1c[nH]cn1)[C@@H](C)O)[C@@H](C)O)C(C)C)[C@@H](C)O)C(=O)N[C@@H](CCC(=O)O)C(=O)N[C@@H](Cc1c[nH]cn1)C(=O)N[C@@H](CC(C)C)C(=O)N[C@H](C(N)=O)C(C)C [compound 71] (H-H[Aib]EGTFTSDVSRLK([AEEA-AEEA-γGlu-C20 diacid])ETAASQRFLEHLV-NH2)
5 | 9251 | 0.1 | 1000 | 96622 | 0.08 | CC(C)C[C@H](NC(=O)[C@H](Cc1ccccc1)NC(=O)[C@H](CCCNC(=N)N)NC(=O)[C@H](CCC(N)=O)NC(=O)[C@H](CCC(=O)O)NC(=O)[C@H](C)NC(=O)[C@H](C)NC(=O)[C@H](Cc1ccccc1)NC(=O)[C@H](CCC(=O)O)NC(=O)[C@H](CCCCNC(=O)COCCOCCNC(=O)COCCOCCNC(=O)CC[C@H](NC(=O)CCCCCCCCCCCCCCCCCCC(=O)O)C(=O)O)NC(=O)[C@H](CC(C)C)NC(=O)[C@H](CCCNC(=N)N)NC(=O)[C@H](CO)NC(=O)[C@@H](NC(=O)[C@H](CC(=O)O)NC(=O)[C@H](CO)NC(=O)[C@@H](NC(=O)[C@H](Cc1ccccc1)NC(=O)[C@@H](NC(=O)CNC(=O)[C@H](CCC(=O)O)NC(=O)C(C)(C)NC(=O)[C@@H](N)Cc1c[nH]cn1)[C@@H](C)O)[C@@H](C)O)C(C)C)C(=O)N[C@@H](CCC(=O)O)C(=O)N[C@@H](Cc1c[nH]cn1)C(=O)N[C@@H](CC(C)C)C(=O)N[C@H](C(N)=O)C(C)C [compound 72] (H-H[Aib]EGTFTSDVSRLK([AEEA-AEEA-γGlu-C20 diacid])EFAAEQRFLEHLV-NH2)
6 | 10668 | 0.00631 | 79.4 | 14344 | 0.09 | CC(C)C[C@H](NC(=O)[C@H](Cc1ccccc1)NC(=O)[C@H](CCCNC(=N)N)NC(=O)[C@H](CCC(N)=O)NC(=O)[C@H](CCC(N)=O)NC(=O)[C@H](C)NC(=O)[C@H](C)NC(=O)[C@H](CCC(=O)O)NC(=O)[C@H](CCC(=O)O)NC(=O)[C@H](CCCCNC(=O)COCCOCCNC(=O)COCCOCCNC(=O)CC[C@H](NC(=O)CCCCCCCCCCCCCCCCCCC(=O)O)C(=O)O)NC(=O)[C@H](CC(C)C)NC(=O)[C@H](CCCNC(=N)N)NC(=O)[C@H](CO)NC(=O)[C@@H](NC(=O)[C@H](CC(=O)O)NC(=O)[C@H](CO)NC(=O)[C@@H](NC(=O)[C@H](Cc1ccccc1)NC(=O)[C@@H](NC(=O)CNC(=O)[C@H](CCC(=O)O)NC(=O)C(C)(C)NC(=O)[C@@H](N)Cc1c[nH]cn1)[C@@H](C)O)[C@@H](C)O)C(C)C)C(=O)N[C@@H](CCC(=O)O)C(=O)N[C@@H](Cc1c[nH]cn1)C(=O)N[C@@H](CC(C)C)C(=O)N[C@H](C(N)=O)C(C)C [compound 73] (H-H[Aib]EGTFTSDVSRLK([AEEA-AEEA-γGlu-C20 diacid])EEAAQQRFLEHLV-NH2)
7 | 231739 | 0.0631 | 12600 | 12039 | 0.08 | CC(C)C[C@H](NC(=O)[C@H](Cc1ccccc1)NC(=O)[C@H](CCCNC(=N)N)NC(=O)[C@H](CCC(N)=O)NC(=O)[C@H](CO)NC(=O)[C@H](C)NC(=O)[C@H](C)NC(=O)C(C)(C)NC(=O)[C@H](CCC(=O)O)NC(=O)[C@H](CCCCNC(=O)COCCOCCNC(=O)COCCOCCNC(=O)CC[C@H](NC(=O)CCCCCCCCCCCCCCCCCCC(=O)O)C(=O)O)NC(=O)[C@H](CC(C)C)NC(=O)[C@H](Cc1ccccc1)NC(=O)[C@H](CO)NC(=O)[C@@H](NC(=O)[C@H](CC(=O)O)NC(=O)[C@H](CO)NC(=O)[C@@H](NC(=O)[C@H](Cc1ccccc1)NC(=O)[C@@H](NC(=O)CNC(=O)[C@H](CCC(=O)O)NC(=O)C(C)(C)NC(=O)[C@@H](N)Cc1c[nH]cn1)[C@@H](C)O)[C@@H](C)O)C(C)C)C(=O)N[C@@H](CCC(=O)O)C(=O)N[C@@H](Cc1c[nH]cn1)C(=O)N[C@@H](CC(C)C)C(=O)N[C@H](C(N)=O)C(C)C [compound 74] (H-H[Aib]EGTFTSDVSFLK([AEEA-AEEA-γGlu-C20 diacid])E[Aib]AASQRFLEHLV-NH2)
